Assay results from patent US20170037425A1, “METHOD FOR IMPROVING PLANT TRAIT” (SHANGHAI INSTITUTES FOR BIOLOGICAL SCIENCES, CHINESE …, priority 2012, published 2017).
“Also recorded” adds a separate entry of the source.

How the values were obtained:
Brassica [1] = assay: Stomatal conductance and intercellular CO2 concentration of transgenic Brassica; type: in vivo, Brassica napus L.
Description: Gas exchange was measured using photosynthetic infrared gas analysis system (LI-6400, Li-Cor Inc, Lincoln, Nebr., USA). The net photosynthetic rate (Pn) and stomatal conductance (Gs) was measured. Sunlight and artificial light were used as artificial light sources for measurement. The ambient CO2 during the measurements was controlled at 400 μmol mol^−1. The ambient temperature was controlled at the temperature for plant growth. Six leaves were measured for each line of plant.

[2] = Electron donation by pre-illuminated LEAT protein (NAD+/NADP+ reduction); type: biochemical
Description: FIG. 1. The effects of light on NAD^+ or NAPD^+ reduction by YFP.
It was reported that proteins such as GFP can function as electron donor to reduce the oxidized small compounds such as NAD^+, potassium ferricyanide, and some proteins such as cytochrome c, and FAD-containing proteins (Bogdanov A. M. et al, 2009, Nature Chemical Biology. 5:459-461), The invertors used E. coli to express and purify recombinant proteins. […] Quinone reduction under light was analyzed by monitoring the decrease of absorption at 436 nm.

[3] = In vitro H2O hydrolysis and oxygen evolution catalyzed by LEAT protein under light; type: biochemical; design: key to O2 evolution activity: +: similar O2 evolution activity as that of YFP; ++: higher O2 evolution activity than that of YFP by at least one order of magnitude; weak: lower activity than that of YFP by at least one order of magnitude
Description: 1.85 ml of 50 mM phosphate buffer (pH6.5) was added in the reaction vessel of Clark-type oxygen electrode, then LEAT proteins (at a final concentration of 0.02-1 μg/ml) and 400 μM 2,3,5-trimethyl-1,4-benzoquinone (TMBQ) or other quinones were sequentially added into the buffer in dark. The oxygen evolution rate was measured under the light with corresponding excitation wave length for LEAT proteins and light intensity at 1-2 μmol m^−2 s^−1.

Rubisco = Rubisco activity assay in transgenic Brassica leaves; type: in vivo, Brassica napus L.
Description: Ribulose-1,5-bisphosphate carboxylase/oxygenase (Rubisco) carboxylase activity assay: Soluble proteins were extracted from fresh leaves with extraction buffer (50 mM Tris-HCl pH 7.8, 1 mM EDTA, 50 mM NaCl, 2 mM β-Mercaptoethanol). The homogenate was centrifuged (12,000 g for 6 min at 4° C.) and the supernatant was used for Rubisco activity assay. Carboxylase activity of Rubisco was measured with ^14C-labelled method as described in (Wang Z Y, Snyder G W, Esau B D, Portis A R, Ogren W L (1992) Species-dependent variation in the interaction of substrate-bound ribulose-1,5-bisphosphate carboxylase/oxygenase (Rubisco) and Rubisco activase. Plant Physiology 100: 1858-1862).

Brassica [4] = assay: Redox metabolites (NAD+/NADH, NADP+/NADPH, GSSG/GSH, ASC/DHA) in transgenic Brassica leaves; type: in vivo, Brassica napus L.; conditions: transgenic Brassica transferred from red+blue light to white light
Description: Leaves were from the 4-week-old Brassica plants grown under white light or red+blue light, or 2 h after being switched from red+blue light to white light. Extraction of metabolites from leaves and measurement of NAD^+/NADH, NADP^+/NADPH, GSSG/GSH and ASC/DHA follows G. Queval, G. Noctor, Anal Biochem. 363, 58 (2007).

Brassica [5] = assay: State transition of leaves and thylakoids of transgenic Brassica; type: in vivo, Brassica napus L.
Description: State transition of leaves was measured using PAM-101/PDA100 fluorometer (Walz) as described in (L. Dietzel et al., The Plant Cell 23, 2964 (Aug. 1, 2011). PSII light with a PFD of 100 μmol m^−2s^−1 was provided by a Schott KL-1500 lamp (Walz). PSI light with a PFD of 6 μmol m^−2s^−1 was provided by PAM-101 (Walz). The half-time (t1/2) of state 1-state 2 transition was determined by calculate the decrease of the fluorescence after PSI light was switched off. The half-time for state 2-state 1 transition was determined following L. Dietzel et al., The Plant Cell 23, 2964 (Aug. 1, 2011). Thylakoids isolated from Brassica leaves were added into STN buffer supplemented with 10 mM ATP in a final concentration of 5-10 μg/ml. Half of thylakoids were illuminated and half of the thylakoids were treated in dark for 20-30 min in room temperature, respectively. Chlorophyll α fluorescence emission spectra were recorded at 77K (in liquid nitrogen) using F-4600 spectrofluorometer (Hitachi, Japan), The excitation wavelength was set at 435 nm. Data were the average of four measurements.

[6] = system: Atp B, D1, Psa D, Lhcb1, Lhca1 and cyt f; assay: Western blot of photosynthesis related proteins in transgenic Brassica leaves; type: in vivo, Brassica napus L.
Brassica [7] = assay: Millisecond-delayed light emission in transgenic Brassica leaves; type: in vivo, Brassica napus L.; conditions: white light and green light
Description: Measurements of millisecond-delayed light emission were carried out according to the method described in Chen et al., 2010 (Reversible association of ribulose-1,5-bisphosphate carboxylase/oxygenase activate with the thylakoid membrane depends upon the ATP level and pH in rice without heat stress. Journal of Experimental Botany 61: 2939-2950). Leaf samples with same size were treated in dark for same time and millisecond-delayed light emission was measured in situ. The leaf sample was illuminated with light passing through holes arranged on two rotating wheels, so that the measurement can be partitioned into consecutive cycles of 1 ms excitation by light followed by 4.6 ms darkness. The delayed light emission between 2.8 and 3.8 ms after every flash was recorded. The white light source was supplied by a halogen lamp, and the green light source was obtained by passing the white light source through a 530 nm filter.

[8] = system: etiolated Brassica hypocotyls; assay: Respiration rate and oxygen evolution in etiolated hypocotyls of transgenic Brassica; type: in vivo, Brassica napus L.; conditions: etiolated hypocotyl
Description: 5-6 individual hypocotyls (5-6 cm in length) were collected from 1-week-old etiolated Brassica. The roots and cotyledons were detached and the hypocotyls were cut into 1 mm in length after weighing. The hypocotyls were put into the reaction vessel of the Clack-type oxygen electrode. The changes of dissolved oxygen content in solution over measuring time were recorded in dark or under light, respectively. Then 15 mM HgCl2 was added to block the respiration, and the change of dissolved oxygen content in solution was recorded. The difference between the respiration rate under light and in dark, and the oxygen evolution rate when respiration was blocked by HgCl2 was calculated.

rice = assay: Phenotype of transgenic rice; type: in vivo
Description: Rice transformation was performed with method described in Liu Qiaoquan, Zhang Jingliu, Wang Zongyang, Hong Mengming and Gu Minghong (1998). A highly efficient transformation system mediated by Argrobacteriun tumefaciens in rice (Oryza sativa L.). Acta Phytophysiologica Sinica 24, 259-271.

With “mCherry: red fluorescent protein, amino acid sequence SEQ ID NO: 2” the “stomatal conductance (Gs) vs WT” value (Brassica [1]; transgenic Brassica) was “increased”, the “intercellular CO2 concentration (Ci)” value (Brassica [1]; transgenic Brassica leaves) was “did not lead to the decrease” and the “function as electron donor under light” value [2] was “cannot continuously provide electrons under light”. The “water photohydrolysis and O2 evolution activity under light” value ([3]; TMBQ substituted with DQ or UQ) was “does not have water photohydrolysis and O2 evolution activity”, the “activity of water hydrolysis among the quinones tested (order)” value ([3]; different quinones, under light) was “TMBQ>DMBQ2>MBQ>DMBQ1” and the O2 evolution activity ([3]; water hydrolysis and O2 evolution under light, relative to YFP) was “+”. For the same substance, the “Rubisco activity and Rubisco activation state” value (Rubisco) was “increased”, the “content of reduced metabolites or ratio of reduced to oxidized metabolites (NADH, NADPH, ascorbate, GSH)” value (Brassica [4]) was “increased” and the “state transition of thylakoid membrane” value (Brassica [5]; transgenic Brassica grown under red+blue light, 77K fluorescence) was “no significant difference”. For the same substance, the “percentage of state transition of thylakoid membrane” value (Brassica [5]; transgenic Brassica grown under white light, 77K fluorescence) was “increased”, the “t0.5 for state transition between St1 and St2” value (Brassica [5]; transgenic Brassica live leaf) was “significantly decreased” and the “expression of photosynthesis related proteins vs WT” value ([6]; transgenic Brassica grown under red+blue light) was “no significant difference”. The “expression of photosynthesis related proteins vs WT” value ([6]; transgenic Brassica grown under white light) was “significantly increased”, the “slow phase of millisecond delay light evolution (ms-DLE) vs WT” value (Brassica [7]) was “higher” and the “net O2 evolution” value ([8]; O2 uptake inhibited by HgCl2, under light) was “observed significantly”. For the same substance, the “O2 uptake rate under light vs WT” value ([8]; without HgCl2) was “significant lower”, the “plant growth vs WT” value (rice) was “grow better than WT; also recorded: improve the growth” and the “seed size and grain yield per plant vs WT” value (rice) was “increase”.
